Measurements taken from the NIST ThermoML archive (doi:10.1016/j.jct.2017.02.022).

Assays:
[1] = refractive index (Na D-line) (dimensionless); xn = mol fraction of the nth substance listed; conditions: 101.3 kPa, Liquid, Standard Abbe refractometry
[2] = xn = mol fraction of the nth substance listed; conditions: 101.3 kPa, Liquid; for speed of sound: Frequency=3 MHz, Sing-around technique in a fixed-path interferometer; for mass density: Vibrating tube method

CCn1cc[n+](C)c1.COS(=O)(=O)[O-] [1-ethyl-3-methylimidazolium methylsulfate] + CCCCO
Conditions	mass density, [2] [kg/m3]	refractive index, [1]	speed of sound, [2] [m/s]
298 K, x1 = 0.041	843	1.403	1260
298 K, x1 = 0.219	976	1.424	1372
298 K, x1 = 0.417	1087	1.442	1504
298 K, x1 = 0.571	1156	1.454	1593
298 K, x1 = 0.731	1214	1.464	1662
298 K, x1 = 0.909	1268	1.475	1729
298 K, x1 = 1	1292	1.48	1762
303 K, x1 = 0.041	839	1.401	1243
303 K, x1 = 0.219	972	1.422	1356
303 K, x1 = 0.417	1083	1.44	1488
303 K, x1 = 0.571	1152	1.452	1578
303 K, x1 = 0.731	1210	1.462	1648
303 K, x1 = 0.909	1264	1.473	1716
303 K, x1 = 1	1289	1.479	1750
308 K, x1 = 0.041	835	1.398	1226
308 K, x1 = 0.219	967	1.419	1340
308 K, x1 = 0.417	1078	1.437	1473
308 K, x1 = 0.571	1147	1.449	1563
308 K, x1 = 0.731	1206	1.461	1634
308 K, x1 = 0.909	1261	1.472	1702
308 K, x1 = 1	1285	1.478	1739
313 K, x1 = 0.041	830	1.395	1209
313 K, x1 = 0.219	963	1.416	1324
313 K, x1 = 0.417	1074	1.435	1457
313 K, x1 = 0.571	1143	1.447	1548
313 K, x1 = 0.731	1202	1.459	1620
313 K, x1 = 0.909	1257	1.47	1689
313 K, x1 = 1	1282	1.476	1727

CCn1cc[n+](C)c1.COS(=O)(=O)[O-] [1-ethyl-3-methylimidazolium methylsulfate] + CCCO
Conditions	mass density, [2] [kg/m3]	refractive index, [1]	speed of sound, [2] [m/s]
298 K, x1 = 0.059	864	1.394	1247
298 K, x1 = 0.228	1003	1.419	1377
298 K, x1 = 0.375	1090	1.435	1487
298 K, x1 = 0.524	1156	1.448	1588
298 K, x1 = 0.72	1223	1.463	1681
298 K, x1 = 0.874	1264	1.473	1730
298 K, x1 = 1	1292	1.48	1762
303 K, x1 = 0.059	859	1.393	1230
303 K, x1 = 0.228	998	1.417	1362
303 K, x1 = 0.375	1085	1.433	1473
303 K, x1 = 0.524	1152	1.446	1574
303 K, x1 = 0.72	1219	1.461	1668
303 K, x1 = 0.874	1260	1.471	1717
303 K, x1 = 1	1289	1.479	1750
308 K, x1 = 0.059	855	1.391	1214
308 K, x1 = 0.228	993	1.415	1347
308 K, x1 = 0.375	1080	1.431	1458
308 K, x1 = 0.524	1148	1.444	1560
308 K, x1 = 0.72	1215	1.459	1654
308 K, x1 = 0.874	1257	1.469	1704
308 K, x1 = 1	1285	1.478	1739
313 K, x1 = 0.059	851	1.389	1197
313 K, x1 = 0.228	989	1.413	1332
313 K, x1 = 0.375	1076	1.428	1443
313 K, x1 = 0.524	1143	1.442	1546
313 K, x1 = 0.72	1211	1.457	1641
313 K, x1 = 0.874	1253	1.468	1692
313 K, x1 = 1	1282	1.476	1727
